Our source for the anticancer activities and IC50 values is patent publication US11827645B2, “Spiro-γ-Lactams, and preparation method and use thereof” (Chongqing University of Arts and Sciences, priority 2020, dated 2023).

Molecules are shown by their SMILES.

For the assay, the system named is human pancreatic cell lines PANC. Put plainly: MTT assay of cancer cell viability, PANC cells. The class given is cell-based. The source says: To evaluate potentials for developing a drug leading from the synthesized compounds, the MTT assay was used to measure cancer cell viability upon the drug treatment. Two cancer cell lines (PANC and U87) were selected, which are some of the representing solid tumor cell lines in the National Cancer Institute's 60 human tumor cell lines panel (see FIG. 1A).

A word on the IC50: it is the point on the concentration scale where inhibition reaches its midpoint. Read a high IC50 as a need for much substance. As for `Cc1cccc(C)c1N1C(=O)C2(C=CC(=O)N2c2ccc(CNC(=O)OC(C)(C)C)cc2)C2C(=O)c3ccccc3OC21` (centres unmarked) [Compound 6j, Tert-butyl (4-(1-(2,6-dimethylphenyl)-2,4,5′-trioxo-1,3a,4,9a-tetrahydro-2H-spiro[chromeno[2,3-b]pyrrole-3,2′-pyrrol]-1′(5′H)-yl)benzyl)carbamate], under “cancer cell viability, PANC”, the anticancer activities entry was “excellent anticancer activities”. The compound also registered a 50% inhibitory concentration (IC50) (human pancreatic cell lines PANC) of 92 nM.
